{"source": "ChEMBL document CHEMBL5230130", "about": "“COVID-19 therapy: What weapons do we bring into battle?” (Bioorg Med Chem, 2020)", "key": {"SARS-CoV-2 [1]": {"system": "SARS-CoV-2", "assay": "Antiviral activity against SARS-COV 2", "type": "functional, organism-based", "conditions": "Severe acute respiratory syndrome coronavirus 2"}, "[2]": {"system": "Middle East respiratory syndrome-related coronavirus", "assay": "Antiviral activity against MERS-CoV infected in human Calu-3 2B4 cells assessed as reduction in virus-induced cytopathic effect incubated for 48 hrs by celltiterglo assay", "type": "functional, organism-based", "conditions": "Calu-3 2B4, 48 h"}, "[3]": {"assay": "Cytotoxicity against human Calu-3 2B4 cells assessed as cell growth inhibition measured after 48 hrs by celltiterglo assay", "type": "toxicity, cell-based"}, "SARS-CoV-2 [4]": {"system": "SARS-CoV-2", "assay": "Antiviral activity against SARS-COV-2 infected in African green monkey Vero E6 cells assessed as inhibition of viral growth at 6.25 uM relative to control", "type": "functional", "conditions": "Severe acute respiratory syndrome coronavirus 2, Vero C1008"}, "SARS-CoV-2 [5]": {"system": "SARS-CoV-2", "assay": "Antiviral activity against SARS-COV-2 infected in African green monkey Vero E6 cells assessed as inhibition of viral growth at 0.195 uM relative to control", "type": "functional", "conditions": "Severe acute respiratory syndrome coronavirus 2, Vero C1008"}, "SARS-CoV": {"system": "SARS-CoV", "assay": "Antiviral activity against SARS-COV infected in African green monkey Vero E6 cells assessed as reduction in virus-induced cytopathic effect incubated for 48 hrs by celltiterglo assay", "type": "functional, organism-based", "conditions": "Severe acute respiratory syndrome-related coronavirus, Vero C1008, 48 h"}, "[6]": {"system": "Middle East respiratory syndrome-related coronavirus", "assay": "Antiviral activity against MERS-CoV infected in African green monkey Vero E6 cells assessed as reduction in virus-induced cytopathic effect incubated for 48 hrs by celltiterglo assay", "type": "functional, organism-based", "conditions": "Vero C1008, 48 h"}, "[7]": {"assay": "Inhibition of Bovine coronavirus nucleoprotein"}, "[8]": {"assay": "Inhibition of human enteric coronavirus strain 4408 nucleoprotein"}, "RAW264.7": {"system": "RAW264.7", "assay": "Anti-inflammatory activity against mouse RAW264.7 cells assessed as reduction in LPS induced IL-6 level by ELISA analysis", "type": "functional, cell-based"}, "Peritoneal macrophage": {"system": "Peritoneal macrophage", "assay": "Anti-inflammatory activity against mouse peritoneal macrophages assessed as reduction in LPS induced IL-6 level by ELISA analysis", "type": "functional, cell-based"}, "SARS-CoV-2 [9]": {"system": "SARS-CoV-2", "assay": "Antiviral activity against SARS-COV-2 infected in African green monkey Vero E6 cells", "type": "functional, organism-based", "conditions": "Severe acute respiratory syndrome coronavirus 2, Vero C1008"}, "[10]": {"assay": "Antiviral activity against hCoV-EMC/2012 infected in African green monkey Vero cells assessed as reduction in virus-induced cytopathic effect incubated for 24 hrs by […] assay", "type": "functional, cell-based, Human betacoronavirus 2c EMC/2012", "conditions": "Middle East respiratory syndrome-related coronavirus"}, "[11]": {"assay": "Antiviral activity against hCoV-EMC/2012 infected in monkey LLC-MK2 cells assessed as reduction in viral titers", "type": "functional, Human betacoronavirus 2c EMC/2012"}, "SARS-CoV-2 [12]": {"system": "SARS-CoV-2", "assay": "Antiviral activity against SARS-CoV-2 nCoV-2019 BetaCoV/Wuhan/WIV04/2019 infected in African green monkey Vero E6 cells assessed as reduction in virus-induced cytopathic effect incubated for 48 hrs by qRT-PCR analysis", "type": "functional, organism-based", "conditions": "Severe acute respiratory syndrome coronavirus 2, nCoV-2019 BetaCoV/Wuhan/WIV04/2019, Vero C1008, 48 h"}, "[13]": {"assay": "Cytotoxicity against African green monkey Vero E6 cells assessed as cell growth inhibition measured after 48 hrs by CCK-8 assay", "type": "toxicity, cell-based, Vero C1008", "conditions": "chlorocebus sabaeus"}, "Canine coronavirus": {"system": "Canine coronavirus", "assay": "Antiviral activity against Canine coronavirus S-378 infected in dog A-72 cells", "type": "functional, organism-based", "conditions": "Alphacoronavirus 1, S-378, A-72"}, "SARS-CoV-2 [14]": {"system": "SARS-CoV-2", "assay": "Antiviral activity against SARS-COV-2 Australia/VIC01/2020 infected in African green monkey Vero cells by RT-PCR assay", "type": "functional, organism-based, Severe acute respiratory syndrome coronavirus 2"}}}
{"compound": "CC(=O)N[C@@H]1[C@H](Oc2c3cc4cc2Oc2ccc(cc2Cl)[C@@H](O[C@@H]2O[C@@H](CO)[C@@H](O)[C@H](O)[C@@H]2NC(C)=O)[C@@H]2NC(=O)[C@H](NC(=O)[C@@H]4NC(=O)[C@H]4NC(=O)[C@@H](Cc5ccc(c(Cl)c5)O3)NC(=O)[C@H](N)c3ccc(O)c(c3)Oc3cc(O)cc4c3)c3ccc(O)c(c3)-c3c(O[C@H]4O[C@H](CO)[C@@H](O)[C@@H](O)[C@@H]4O)cc(O)cc3[C@@H](C(=O)O)NC2=O)O[C@@H](CO)[C@@H](O)[C@@H]1O", "values": [{"measurement": "IC50", "setting": "SARS-CoV-2 [1]", "value": 1.66, "unit": "µM"}]}
{"compound": "CCC(CC)COC(=O)[C@H](C)N[P@](=O)(OC[C@H]1O[C@@](C#N)(c2ccc3c(N)ncnn23)[C@H](O)[C@@H]1O)Oc1ccccc1", "values": [{"measurement": "IC50", "setting": "[2]", "value": 0.025, "unit": "µM"}, {"measurement": "CC50 at 48 h", "setting": "[3]", "value": 10, "unit": "µM"}, {"measurement": "inhibition at 6.25 µM", "setting": "SARS-CoV-2 [4]", "value": 64.9, "unit": "%"}]}
{"compound": "CC[C@H]1CN2CCc3cc(OC)c(OC)cc3[C@@H]2C[C@@H]1C[C@H]1NCCc2cc(OC)c(OC)cc21", "note": "[EMETINE]", "values": [{"measurement": "inhibition at 0.195 µM", "setting": "SARS-CoV-2 [5]", "value": 64.9, "unit": "%"}]}
{"compound": "Nc1ccn([C@@H]2O[C@H](CO)[C@@H](O)C2(F)F)c(=O)n1", "note": "[GEMCITABINE]", "values": [{"measurement": "EC50", "setting": "SARS-CoV", "value": 4.9, "unit": "µM"}, {"measurement": "EC50", "setting": "[6]", "value": 1.2, "unit": "µM"}]}
{"compound": "CC(=O)Oc1ccccc1C(=O)Nc1ncc([N+](=O)[O-])s1", "note": "[NITAZOXANIDE]", "values": [{"measurement": "IC50", "setting": "[7]", "value": 0.3, "unit": "µg/mL"}, {"measurement": "IC50", "setting": "[8]", "value": 0.3, "unit": "µg/mL"}, {"measurement": "IC50", "setting": "RAW264.7", "value": 1540, "unit": "µM"}, {"measurement": "IC50", "setting": "Peritoneal macrophage", "value": 2000, "unit": "µM"}]}
{"compound": "COC(=O)C[C@](O)(CCCC(C)(C)O)C(=O)O[C@@H]1C(OC)=C[C@]23CCCN2CCc2cc4c(cc2[C@H]13)OCO4", "note": "[OMACETAXINE MEPESUCCINATE]", "values": [{"measurement": "EC50", "setting": "SARS-CoV-2 [9]", "value": 2.1, "unit": "µM"}]}
{"compound": "NC(=O)c1ncn([C@@H]2O[C@H](CO)[C@@H](O)[C@H]2O)n1", "note": "[RIBAVIRIN]", "values": [{"measurement": "IC50", "setting": "[10]", "value": 41.4, "unit": "µg/mL"}, {"measurement": "TCID50", "setting": "[11]", "value": 13.7, "unit": "µg/mL"}, {"measurement": "EC50", "setting": "SARS-CoV-2 [12]", "value": 11000, "unit": "µM"}, {"measurement": "CC50 at 48 h", "setting": "[13]", "value": "> 400", "unit": "µM"}]}
{"compound": "O=C(Nc1ncc([N+](=O)[O-])s1)c1ccccc1O", "note": "[TIZOXANIDE]", "values": [{"measurement": "IC50", "setting": "Canine coronavirus", "value": 1, "unit": "µg/mL"}]}
{"compound": "IVERMECTIN", "values": [{"measurement": "IC50", "setting": "SARS-CoV-2 [14]", "value": 2, "unit": "µM"}]}
